The record followed here is patent US8821850B2, “Protein-polymer-drug conjugates” (Mersana Therapeutics, Inc., priority 2011, dated 2014).

Where two headings read alike, the source gives them in different places. Square brackets hold non-standard residues; d marks the D form. Peptide text beside a SMILES is read from it. * marks the point of attachment. Dolaproine = CO[C@@H]([C@@H]1CCCN1)[C@@H](C)C(=O)O; Dil = CC[C@H](C)[C@H](NC)[C@@H](CC(=O)O)OC; NMe2Val = CC(C)[C@@H](C(=O)*)N(C)C; X1 = C[C@H](N)C(=O)OCCCN*

Format in all cases: cell-based
The subject of experiment [1] is cells expressing low levels of HER2-MCF7. The experiment is described as follows: Cell viability assay (Cell Titer-Glo), MCF7. Background: ATP-based viability assays read luminescence as a measure of living cells.
Method: (§1) PBRM-drug polymer conjugates were evaluated for their tumor viability using Cell Titer-Glo (Promega Corp). Cells were plated in black walled 96-well plate and allowed to adhere overnight at 37° C. in a humidified atmosphere of 5% CO2. HER2 expressing cells SKBR3, BT474, NCI-N87 and cells expressing low levels of HER2-MCF7 were plated at a density of 5,000 cells per well. The next day the medium was replaced with 50 μL fresh medium and 50 μL of 2× stocks of PBRM-drug polymer conjugate, drug polymer conjugate or drug were added to appropriate wells, mixed and incubated for 72 h. Cell Titer-Glo reagent was added to the wells at room temperature and the luminescent signal was measured after 10 min using a SpectraMax M5 plate reader (Molecular Devices). Dose response curves were generated using SoftMax Pro software. IC50 values were determined from four-parameter curve fitting.
In experiment [2] the test system is HER2 expressing cells NCI-N87. The experiment is described as follows: Cell viability assay (Cell Titer-Glo), NCI-N87. As to conditions: read-out: N87 IC50.
Method: as §1
Experiment [3] has as its system HER2 expressing cells BT474. Kind of experiment: Cell viability assay (Cell Titer-Glo), BT474. The following applies: read-out: BT474 IC50.
Method: as §1
Experiment [4] relates to HER2 expressing cells SKBR3. Kind of experiment: Cell viability assay (Cell Titer-Glo), SKBR3.
Method: as §1
The mark [5] stands for this setting: Table XIII, 72 h, conjugates with high drug loading, read-out: MCF7 IC50.
[6] abbreviates: Table XIII, 72 h, conjugates with high drug loading.
Setting [7] is: Table XIII, 72 h, conjugates with high drug loading, read-out: SKBR3 IC50.
Where [8] appears, read: Table XII, 72 h, conjugates with PBRM MW<80 kDa, read-out: MCF7 IC50.
[9] abbreviates: Table XII, 72 h, conjugates with PBRM MW<80 kDa, read-out: SKBR3 IC50.
Where [10] appears, read: Homo sapiens, MCF7, 72 h, read-out: MCF7 IC50, Table II.

The term IC50 denotes the concentration that inhibits the measured activity by half. On to “22 kDa PHF-BA-(AF HPA)-SS-Rituximab [Example 94, Conjugate C]”, for which the IC50 in experiment [1] (setting [5]) worked out at 4.17 nM; in experiment [2] (setting [6]) it was 5.84 nM; in experiment [3] (setting [6]) it was 2.82 nM.

As for “22 kDa PHF-BA-(AF HPA-L-Alanine)-SS-Trastuzumab [Example 94, Conjugate A]”, the IC50 in experiment [1] (setting [5]) amounted to 9.5 nM; in experiment [2] (setting [6]), 0.12 nM; in experiment [3] (setting [6]) it was 0.05 nM; in experiment [4] (setting [7]), 0.008 nM.

On to “47 kDa PHF-BA-(AF HPA-L-Alanine)-SS-Rituximab [Example 94, Conjugate D]”, for which the IC50 is 8.8 nM in experiment [1] (setting [5]), 10.9 nM in experiment [2] (setting [6]), 1.1 nM in experiment [3] (setting [6]) and 0.26 nM in experiment [4] (setting [7]).

“47 kDa PHF-BA-(AF HPA-L-Alanine)-SS-Trastuzumab [Example 94, Conjugate B]”: the IC50 in experiment [1] (setting [5]) was 7.4 nM; in experiment [2] (setting [6]) it was around 0.3 nM; in experiment [3] (setting [6]) it was below 0.05 nM; in experiment [4] (setting [7]) it was below 0.05 nM.

Regarding “105 kDa PHF-BA (AF HPA-L-Alanine)-SS-(Trastuzumab-Fab′) [Example 96 Conjugate A]”, the IC50 is above 100 nM in experiment [1] (setting [8]) and 0.6 nM in experiment [4] (setting [9]).

As for “156 kDa PHF-BA (AF HPA-L-Alanine)-SS-(Trastuzumab-Fab′) [Example 96 Conjugate B]”, the figures for the IC50 in experiment [1] (setting [8]) and in experiment [4] (setting [9]) were above 100 nM and 1 nM, respectively.

`CCC1(O)C[C@H]2C[N@](CCc3c([nH]c4ccccc34)[C@@](C(=O)OC)(c3cc4c(cc3OC)N(C)C3C45CCN4CC=C[C@](CC)(C45)[C@@H](O)[C@]3(O)C(=O)NC[C@H](C)O)C2)C1` (stereo partly drawn) [Example 22, (S)-2HPV]: the IC50 in experiment [1] (setting [10]) was 1.83 nM; in experiment [3] (Homo sapiens, BT-474, 72 h) it was 0.41 nM.

For the molecule `CCC1(O)C[C@H]2C[N@](CCc3c([nH]c4ccccc34)[C@@](C(=O)OC)(c3cc4c(cc3OC)N(C)C3C45CCN4CC=C[C@](CC)(C45)[C@@H](O)[C@]3(O)C(=O)NC[C@@H](C)O)C2)C1` (stereo partly drawn) [Example 23, (R)-2HPV], the half-inhibitory concentration (IC50) in experiment [1] (setting [10]) is 1.71 nM; in experiment [3] (Homo sapiens, BT-474, 72 h) it was 0.39 nM; in experiment [4] (Homo sapiens, SK-BR-3, 72 h, read-out: SKBR3 IC50, Table II), 0.71 nM.

In the case of `CC[C@H](C)[C@@H]([C@@H](CC(=O)N1CCC[C@H]1[C@H](OC)[C@@H](C)C(=O)N[C@@H](Cc1ccccc1)C(=O)NCCCOC(=O)[C@H](C)N)OC)N(C)C(=O)[C@@H](NC(=O)[C@H](C(C)C)N(C)C)C(C)C` [Example 50, AF HPA-L-Alanine] (NMe2Val-V[Dil][Dolaproine]F-X1), the half-inhibitory concentration (IC50) in experiment [1] (Homo sapiens, MCF7, 72 h, read-out: MCF7 IC50, Table XIII, conjugates with high drug loading) was found to be 8.5 nM; in experiment [1] (read-out: MCF7 IC50, Table XIII, 72 h, conjugates with high drug loading), 8.2 nM; in experiment [2] (Homo sapiens, NCI-N87, 72 h) it was 1.6 nM; in experiment [3] (Homo sapiens, BT-474, 72 h), 0.85 nM; in experiment [4] (Homo sapiens, SK-BR-3, 72 h, read-out: SKBR3 IC50, Table XIII, conjugates with high drug loading), 0.32 nM.
